Holding throughout (test): NCI tumour cell line growth inhibition, 48 h
The test system of assay [1] is A549.
For assay [2], the system named is COLO 205.
Assay [3] concerns EKVX.
Assay [4] relates to HCC 2998.
Assay [5] relates to HCT-116.
The subject of assay [6] is HCT-15.
For assay [7], the system named is HOP-62.
In assay [8] the test system is K562.
Assay [9] relates to NCI-H23.
The subject of assay [10] is NCI-H460.
The subject of assay [11] is OVCAR-4.
Assay [12] relates to RPMI-8226.
Assay [13] deals with RXF 393.
The subject of assay [14] is SK-MEL-28.
In assay [15] the test system is SK-MEL-5.
Assay [16] relates to SN12C.
In assay [17] the test system is SNB-75.
Assay [18] relates to SW-620.
The subject of assay [19] is UACC-257.
Assay [20] concerns UO-31.

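Five concentrations, 48 hours, 96-well plates. GI50 = concentration required for 50% inhibition of growth.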 Active and inactive are the calls of the source. Rule as the data show it: active = GI50 up to about 1.1 µM and inactive = higher.

`COc1ccc(-c2nnc3c4ccccc4sn23)cc1`: the GI50 in [1] is 25.4 µM (inactive); in assay [2], 42.4 µM (inactive); in [3] it was 50.7 µM (inactive); in assay [4], 17 µM (inactive); in assay [5], 30.2 µM (inactive); in assay [6], 6.28 µM. Further, the GI50 in assay [7] was 5.69 µM (inactive); in assay [8], 16.6 µM (inactive); in assay [9] it was 13.3 µM (inactive); in assay [10] it was 4.58 µM (inactive); in [11], 47 µM (inactive); in [12] it was 19.1 µM (inactive). Moreover, the GI50 was 6.43 µM (inactive) in [13]; 22.8 µM (inactive) in [14]; 34.4 µM (inactive) in assay [15]; 17.8 µM (inactive) in assay [16]; 10.2 µM (inactive) in [17]; 49 µM (inactive) in assay [18]. Moreover, the GI50 is 20 µM (inactive) in assay [19] and 14.3 µM (inactive) in assay [20].

For `CCC1CN2CCC1CC2` (stereo not given), the GI50 was > 100 µM (inactive) in assay [1]; > 100 µM (inactive) in assay [2]; > 100 µM (inactive) in assay [3]; > 100 µM (inactive) in [4]; > 100 µM (inactive) in [5]; above 100 µM in assay [6]. The GI50 in assay [7], in assay [8], in [9], in [10], in assay [11] and in assay [12] was > 100 µM (inactive) throughout. Also, the GI50 in assay [13], in assay [14], in [15], in assay [16], in assay [17] and in assay [18] was > 100 µM (inactive) each time. For the same compound, the figures for the GI50 in [19] and in assay [20] were > 91.4 µM (inactive) and > 100 µM (inactive), respectively.

In the case of `Cn1c2ccccc2c(=O)c2c(O)cc3c(c21)C=CC(C)(C)O3` [NORACRONYCINE], the GI50 in assay [1] is > 25 µM (inactive); in [2] it was > 25 µM (inactive); in assay [3], > 21.1 µM (inactive); in assay [4], > 25 µM (inactive); in assay [5] it was > 25 µM (inactive); in assay [6], above 25 µM. In addition, the GI50 in assay [7], in assay [8], in [9], in assay [10], in assay [11] and in assay [12] was > 25 µM (inactive) throughout. For the same compound, the GI50 was > 10.2 µM (inactive) in assay [13]; > 25 µM (inactive) in [14]; > 25 µM (inactive) in [15]; > 25 µM (inactive) in assay [16]; > 16.8 µM (inactive) in assay [17]; 12.2 µM (inactive) in [18]. Also, the GI50 in assay [19] and in assay [20] was > 25 µM (inactive) throughout.

In the case of `O=C(O)CCCCCCCCC(=O)O` [SEBACIC ACID], the GI50 was 108 µM (inactive) in [1]; > 79.3 µM (inactive) in assay [2]; 50 µM (inactive) in assay [3]; 50 µM (inactive) in assay [4]; > 500 µM (inactive) in [5]; 99.1 µM in [6]. Moreover, the GI50 in [7] was > 50 µM (inactive); in assay [8], > 500 µM (inactive); in assay [9] it was 79.3 µM (inactive); in assay [10], 108 µM (inactive); in [11], > 50 µM (inactive); in [12], > 500 µM (inactive). Moreover, the GI50 in assay [13] is 50 µM (inactive); in assay [14] it was > 500 µM (inactive); in assay [15], > 23.2 µM (inactive); in [16], > 321 µM (inactive); in [17], > 79.3 µM (inactive); in [18], > 500 µM (inactive). Also, the GI50 in [19] was 108 µM (inactive); in assay [20] it was > 79.3 µM (inactive).

(Values after ChEMBL document CHEMBL1201862, “PubChem BioAssay data set” (2004).)
